From patent US20210128561A1, “MRGX Receptor Antagonists” (Rheinische-Friedrich-Wilhelms-Universität Bonn, priority 2019, published 2021)
Ends that are not written are not given here.

Key:
human LAD2 mast cells = settings: cited from earlier work
human MrgX4 L83S = molecular target: T1, human MrgX4 L83S (Homo sapiens, UniProt Q96LA9, L83S); assay: β-arrestin assay (CHO β-arrestin human MrgX4 L83S); format: cell-based; settings: for % inhibition ± SEM: test concentration not given
T1 construct: expressed in transfected cells; host or cells: CHO beta-arrestin cells

human wildtype MrgX2 = molecular target: T2, human wildtype MrgX2 (Homo sapiens, UniProt Q96LB1); assay: calcium assay (LN229 cells recombinantly expressing human wildtype MrgX2); format: cell-based; settings: for % inhibition ± SEM: test concentration not given
T2 construct: expressed in transfected cells; host or cells: LN229 cells
T2 sequence (Q96LB1 1-330): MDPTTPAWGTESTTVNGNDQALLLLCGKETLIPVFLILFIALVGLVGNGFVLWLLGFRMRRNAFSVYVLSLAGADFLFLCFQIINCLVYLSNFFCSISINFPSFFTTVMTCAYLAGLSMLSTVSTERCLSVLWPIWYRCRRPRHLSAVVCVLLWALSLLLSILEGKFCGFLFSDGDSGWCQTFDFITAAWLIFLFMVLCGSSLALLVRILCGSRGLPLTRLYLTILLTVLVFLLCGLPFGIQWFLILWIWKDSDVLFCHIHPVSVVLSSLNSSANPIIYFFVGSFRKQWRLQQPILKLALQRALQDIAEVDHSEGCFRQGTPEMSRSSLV

T1 sequence (Q96LA9 whole entry L83S): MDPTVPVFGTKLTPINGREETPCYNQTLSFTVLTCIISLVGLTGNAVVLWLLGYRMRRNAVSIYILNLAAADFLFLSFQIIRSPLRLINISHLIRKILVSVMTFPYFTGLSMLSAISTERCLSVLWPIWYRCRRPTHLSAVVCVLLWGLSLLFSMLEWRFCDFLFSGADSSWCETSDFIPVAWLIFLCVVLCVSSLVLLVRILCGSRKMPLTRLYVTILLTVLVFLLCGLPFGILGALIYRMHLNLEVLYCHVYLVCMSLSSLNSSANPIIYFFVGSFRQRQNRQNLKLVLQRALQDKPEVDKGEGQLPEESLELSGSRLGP

Row | IC50 (human MrgX4 L83S) [nM] | % inhibition ± SEM (human MrgX4 L83S) [%] | IC50 (human wildtype MrgX2) [nM] | Molecule | other results
1 |  |  |  | Gln-D-Trp(Formyl-)Phe-benzylester [QWF] | β-hexosaminidase release of SP and QWF together (human LAD2 mast cells; 100 μM QWF vs. 1 μM substance P, LAD2): 20%
2 | > 100000 | 8 |  | CNCCc1c(C)[nH]c2nc3ccccc3n2c1=O [C-68] | 
3 | > 10000 | 2 | > 100000 | CCc1c(C)n(C)c2nc3ccccc3n2c1=O [A-30] | % inhibition ± SEM (human wildtype MrgX2): 31%
4 | 468 ± 52 |  | 51.3 ± 19.1 | CCc1c(CC(C)C)[nH]c2nc3ccccc3n2c1=O [C-78] | 
5 | > 100000 | −33 |  | CCOC(=O)Cc1cc(=O)n2c(nc3ccccc32)[nH]1 [A-29] | 
6 | > 100000 | 26 |  | Cc1[nH]c2nc3ccccc3n2c(=O)c1CCC#N [A-16] | 
7 | > 100000 | −2 |  | O=c1cc(-c2ccccc2)[nH]c2nc3ccccc3n12 [A-20] | 
8 | 1400 ± 360 |  | 199 ± 25 | CCCc1[nH]c2nc3cc(C)c(C)cc3n2c(=O)c1CC [B-44] | 
9 | 1180 ± 330 |  |  | CCc1c(C2CC2)[nH]c2nc3ccccc3n2c1=O [C-77] | 
10 | > 100000 | 40 |  | CCc1c(C)nc2[nH]ccn2c1=O [B-31] | 
11 | > 100000 | 18 |  | O=c1ccnc2[nH]c3ccccc3n12 [A-2] | 
12 | 214 ± 32 |  | > 100000 | CCCc1[nH]c2nc3ccccc3n2c(=O)c1CCC [B-45] | % inhibition ± SEM (human wildtype MrgX2): 89%
13 | 223 ± 19 |  |  | CCc1c(C(C)C)[nH]c2nc3ccc(Cl)cc3n2c1=O [C-85] | 
14 | > 100000 | 16 | > 100000 | CCc1c(O)[nH]c2nc3ccccc3n2c1=O [A-24] | % inhibition ± SEM (human wildtype MrgX2): 2%
15 | > 10000 | 39 |  | CCc1c(C(C)C)nc2n(Cc3ccccc3)c3ccc(C)cc3n2c1=O [C-72] | 
16 | 2420 ± 220 |  | 683 ± 174 | CCCc1c(C)[nH]c2nc3ccccc3n2c1=O [A-10] | 
17 | > 100000 | 24 |  | Cc1[nH]c2nc3ccccc3n2c(=O)c1Cc1ccccc1 [A-13] | 
18 | > 100000 | 9 |  | Cc1[nH]c2nc3ccccc3n2c(=O)c1CCN=[N+]=[N-] [C-69] | 
19 | > 100000 | −13 |  | COCc1cc(=O)n2c(nc3ccccc32)[nH]1 [A-26] | 
20 | 148 ± 42 |  | 3.94 ± 1.67 | CC(C)c1cc(=S)n2c(nc3ccccc32)[nH]1 [B-56] | 
21 | 18 ± 4.4 |  | 1.26 ± 0.29 | CCc1c(C(C)C)[nH]c2nc3cc(F)ccc3n2c1=O [C-74] | 
22 | > 100000 | 4 |  | Cc1cc(=O)n2cc[nH]c2n1 [A-1] | 
23 | 3220 ± 820 |  | > 100000 | CC(C)c1cc(=O)n2c(nc3ccccc32)[nH]1 [A-17] | % inhibition ± SEM (human wildtype MrgX2): 70%
24 | > 10000 | 2 |  | CSc1cc(C(C)C)nc2nc3ccccc3n12 [B-61] | 
25 | > 100000 | 22 | > 100000 | Cc1[nH]c2nc3ccccc3n2c(=O)c1CCO [B-34] | % inhibition ± SEM (human wildtype MrgX2): −2%

Row | IC50 (human MrgX4 L83S) [nM] | % inhibition ± SEM (human MrgX4 L83S) [%] | IC50 (human wildtype MrgX2) [nM] | Molecule | other results
26 | > 10000 | 19 |  | Cc1[nH]c2nc3ccccc3n2c(=O)c1CCc1ccccc1 [A-14] | 
27 |  |  |  | substance P (RPKPQQFFGLM-NH2; ends and bridges not checked; UniProt P20366 58-68, looked up) | β-hexosaminidase release of SP alone (human LAD2 mast cells; 1 μM substance P, LAD2): 60%; β-hexosaminidase release of substance P alone (human LAD2 mast cells; saikosaponin A study, stimulus stated as 30 μg/mL compound 48/80, LAD2): 100%
28 | 278 ± 42 |  |  | CCCc1[nH]c2nc3ccccc3n2c(=O)c1CC [B-43] | 
29 | 11600 ± 3700 |  | 2890 ± 240 | Cc1[nH]c2nc3ccccc3n2c(=O)c1C [A-8] | 
30 | > 100000 | 0 |  | O=c1ccn2c(n1)[nH]c1ccccc12 [B-64, Benzo[4,5]imidazo[1,2-a]pyrimidin-2(10H)-one] | 
31 | 477 ± 87 |  | 8.27 ± 0.82 | CCc1c(C(C)C)[nH]c2nc3cc(Cl)c(Cl)cc3n2c1=O [B-41] | 
32 | > 10000 | 40 |  | CCc1c(C(C)C)nc2n(Cc3ccccc3)c3cc(C)ccc3n2c1=O [C-73] | 
33 | > 100000 | 14 |  | 2-Methyl-4H-benzo[4,5]thiazolo[3,2-a]pyrimidin-4-one [B-60] | 
34 | > 100000 | 25 |  | CCOC(=O)c1cnc2[nH]c3ccccc3n2c1=O [A-3] | 
35 | 14700 ± 1300 |  | > 100000 | CCCc1cc(=O)n2c(nc3ccccc32)[nH]1 [A-19] | % inhibition ± SEM (human wildtype MrgX2): 27%
36 | > 100000 | 35 |  | CCCn1c(C)cc(=O)n2c3ccccc3nc12 [A-4] | 
37 | > 100000 | 43 |  | Cc1cc(=O)n2c3ccccc3nc2n1CC#N [A-7] | 
38 | 5540 ± 1740 |  | > 10000 | CCCc1c(CC)c(=O)n2c([nH]c3ccccc32)c1C#N [C-88] | % inhibition ± SEM (human wildtype MrgX2): 86%
39 | > 100000 | 4 |  | COC(=O)Cc1cc(=O)n2c(nc3ccccc32)[nH]1 [A-28] | 
40 | > 100000 | 2 |  | N#CCCc1c(-c2ccccc2)[nH]c2nc3ccccc3n2c1=O [A-22] | 
41 | 250 ± 61 |  |  | CCc1c(-c2ccc(OC)cc2)[nH]c2nc3ccccc3n2c1=O [B-46] | 
42 | 349 ± 65 |  |  | CCc1c(C(C)(C)C)[nH]c2nc3ccccc3n2c1=O [C-76] | 
43 | > 100000 | 48 | > 100000 | CC(C)c1cc(=O)n2c3ccccc3n(C)c2n1 [B-36] | % inhibition ± SEM (human wildtype MrgX2): 10%
44 | 3230 ± 360 |  | 662 ± 102 | CCc1c(C)[nH]c2nc3ccccc3n2c1=O [A-9] | 
45 | > 10000 | −25 |  | Cc1[nH]c2nc3ccccc3n2c(=O)c1CCC(C)C [A-12] | 
46 | 91 ± 29.2 |  | 0.446 ± 0.142 | CCc1c(C(C)C)[nH]c2nc3cc(C)ccc3n2c1=O [C-71] | 
47 | > 100000 | 18 |  | Cc1cc(=O)n2c(nc3cc4ccccc4cc32)[nH]1 [B-62] | 
48 | > 100000 | −4 |  | Cc1cc(=S)n2c(nc3ccccc32)[nH]1 [B-57] | 
49 | > 10000 | 20 |  | COCCc1c(C)[nH]c2nc3ccccc3n2c1=O [B-35] | 
50 | > 100000 | 13 |  | Cc1cc(=O)n2c(n1)oc1ccccc12 [B-59, 2-Methyl-4H-benzo[4,5]oxazolo[3,2-a]pyrimidin-4-one] | 

Row | IC50 (human MrgX4 L83S) [nM] | % inhibition ± SEM (human MrgX4 L83S) [%] | IC50 (human wildtype MrgX2) [nM] | Molecule | other results
51 | > 100000 | −18 |  | O=C(O)Cc1cc(=O)n2c(nc3ccccc32)[nH]1 [A-27] | 
52 | > 100000 | 4 |  | NC1=NC=NC2Nc3ccccc3N12 (stereo not shown) [B-66] | 
53 | 147 ± 15 |  | 0.352 ± 0.07 | CCc1c(C(C)C)[nH]c2nc3ccc(C)cc3n2c1=O [C-70] | 
54 | > 10000 | −5 |  | Cc1cc(=O)n2c3ccccc3nc2n1Cc1ccccc1 [A-5] | 
55 | > 100000 | 22 |  | CCCCc1c(O)[nH]c2nc3ccccc3n2c1=O [A-25] | 
56 | > 100000 | 6 |  | CC(C)c1cc(=O)n2c(nc3cc4ccccc4cc32)[nH]1 [B-63] | 
57 | > 100000 | 48 |  | COC(=O)c1cc(=O)[nH]c2nc3ccccc3n12 [B-65] | 
58 | 540 ± 76 |  | > 10000 | CCc1c(-c2ccccc2)[nH]c2nc3ccccc3n2c1=O [C-79] | % inhibition ± SEM (human wildtype MrgX2): 105%
59 | 890 ± 184 |  | 36.8 ± 8.4 | CCc1c(C(C)C)[nH]c2nc3cc(Br)c(Br)cc3n2c1=O [C-75] | 
60 | > 100000 | 48 |  | CC(C)(C)c1cc(=O)n2c(nc3ccccc32)[nH]1 [A-18] | 
61 | 583 ± 49 |  | 12.1 ± 1.5 | CCCc1c(-c2ccccc2)[nH]c2nc3ccccc3n2c1=O [A-21] | 
62 | > 100000 | 15 | 54 ± 19.2 | CCc1c(C(C)C)[nH]c2nc3c(C)cccc3n2c1=O [B-38] | 
63 | 8040 ± 1630 |  |  | Cc1[nH]c2nc3ccccc3n2c(=O)c1CCCl [C-67] | 
64 | > 100000 | −44 |  | O=c1ccsc2nc3ccccc3n12 [B-58, 4H-benzo[4,5]imidazo[2,1-b][1,3]thiazin-4-one] | 
65 | 87.7 ± 36.8 |  | 18.4 ± 5.4 | CCc1c(C(C)C)[nH]c2nc3cc(C)c(C)cc3n2c1=O [B-39] | 
66 | 22.5 ± 2.4 |  | 0.42 ± 0.054 | CCc1c(C(C)C)[nH]c2nc3cc(F)c(F)cc3n2c1=O [B-40] | 
67 | 290 ± 98 |  | 2.48 ± 0.75 | CCc1c(C(C)C)[nH]c2nc3ccccc3n2c1=O [B-37] | 
68 | > 10000 | 34 |  | CCc1c(-c2cccs2)[nH]c2nc3ccccc3n2c1=O [C-80] | 
69 | 512 ± 107 |  | > 100000 | CCCc1c(C(C)C)[nH]c2nc3ccccc3n2c1=O [B-42] | % inhibition ± SEM (human wildtype MrgX2): 68%
70 | > 100000 | 45 |  | O=C(O)c1cnc2[nH]c3ccccc3n2c1=O [B-32] | 
71 | > 100000 | 37 |  | CCCCc1c(C)[nH]c2nc3ccccc3n2c1=O [A-11] | 
72 | 1400 ± 880 |  | > 100000 | CCOC(=O)CCc1c(C)[nH]c2nc3ccccc3n2c1=O [A-15] | % inhibition ± SEM (human wildtype MrgX2): 3%
73 | > 100000 | 24 |  | Cc1cc(=O)n2c(n1)[nH]c1ccccc12 [B-33] | 
74 | > 10000 | 14 |  | Cc1cc(=O)n2c3ccccc3nc2n1Cc1ccc(Cl)cc1 [A-6] | 

Row | Molecule | IC50 (human MrgX4 L83S) [nM] | % inhibition ± SEM (human MrgX4 L83S) [%] | IC50 (human wildtype MrgX2) [nM] | other results
75 | O=c1c2c([nH]c3nc4ccccc4n13)CCCC2 [B-55] | 5660 ± 1150 |  | > 100000 | % inhibition ± SEM (human wildtype MrgX2): 20%
